Measurements published in patent publication US11447445B2, “Diabetes and metabolic syndrome treatment with a novel dual modulator of soluble epoxide hydrolase and peroxisome proliferator-activated receptors” (priority 2015, dated 2022).
In brackets after ≈: the same amount, converted by molar mass. Like-named read-outs stand apart in the source and are kept apart here.

Experiments:
[1] = Water solubility approximation; format: physicochemical; conditions: PBS with 0.01% Polysorbate 20, aqueous with cosolvent or surfactant or cyclodextrin, kinetic from dmso stock; PBS pH 7.4, 0.01% Polysorbate 20, 1% DMSO; precipitation at 650 nm; read-out: w.s. (water solubility)
Description: PBS at pH 7.4 with 0.01% Polysorbate 20 (Tween) was combined with 1% of a DMSO solution of the inquired compound in a 96-well transparent flat bottom microtiter plate. Precipitation of the compound was measured at 650 nm with a Tecan Infinite 200 (Tecan Group Ltd, Mannedorf, Switzerland).

recombinant human sEH = biological target: T1, recombinant human sEH (Homo sapiens, UniProt P34913); experiment: biochemical
T1 sequence (P34913 1-555): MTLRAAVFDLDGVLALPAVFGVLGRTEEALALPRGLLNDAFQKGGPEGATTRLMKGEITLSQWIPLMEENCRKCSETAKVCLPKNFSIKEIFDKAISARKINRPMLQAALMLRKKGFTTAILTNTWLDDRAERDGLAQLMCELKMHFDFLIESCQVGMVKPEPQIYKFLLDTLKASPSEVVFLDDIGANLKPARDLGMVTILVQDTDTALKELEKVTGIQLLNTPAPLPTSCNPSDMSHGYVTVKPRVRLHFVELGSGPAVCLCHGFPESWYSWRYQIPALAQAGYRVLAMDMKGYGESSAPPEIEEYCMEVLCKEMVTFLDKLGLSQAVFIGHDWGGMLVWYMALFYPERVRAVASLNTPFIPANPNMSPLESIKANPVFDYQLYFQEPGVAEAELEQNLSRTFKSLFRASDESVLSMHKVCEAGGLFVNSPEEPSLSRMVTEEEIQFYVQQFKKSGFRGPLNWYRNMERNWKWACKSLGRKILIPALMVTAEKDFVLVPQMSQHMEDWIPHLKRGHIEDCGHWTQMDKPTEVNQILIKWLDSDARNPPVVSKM

PPARα = biological target: T2, PPARα (Homo sapiens, UniProt Q07869); format: cell-based; conditions: for PPARα activation @10 μM: at 10 μM, compared to GW7647 1 μM
T2 construct: expressed in transfected cells; host or cells: COS-7
T2 sequence (Q07869 239-466): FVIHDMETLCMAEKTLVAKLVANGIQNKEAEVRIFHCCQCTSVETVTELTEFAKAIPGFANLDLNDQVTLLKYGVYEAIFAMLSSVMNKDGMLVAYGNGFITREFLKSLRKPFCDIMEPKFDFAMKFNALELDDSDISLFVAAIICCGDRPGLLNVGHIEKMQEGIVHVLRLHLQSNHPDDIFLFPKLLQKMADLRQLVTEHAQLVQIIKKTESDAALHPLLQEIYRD
Description: (§1) COS-7 cells (PPAR) were grown in DMEM high glucose, supplemented with 10% fetal calf serum (FCS), 1% sodium pyruvate (SP) and 1% penicillin/streptomycin (PS) at 37° C. and 5% CO2. Used plasmids for PPAR transactivation assay are shown under supporting informations.
(§2) The day before transfection, COS-7 cells were seeded in 96-well plates with a density of 30,000 cells per well. Transient transfection was carried out using Lipofectamine LTX reagent (Invitrogen, Carlsbad, Calif., USA) according to the manufacturer's protocol with pFR-Luc (Stratagene), pRL-SV40 (Promega) and the Ga14-fusion receptor plasmids (pFA-CMV-hPPAR-LBD) of the respective PPAR subtype. 5 h after transfection, medium was changed to DMEM without phenol red and 10% FCS, supplemented with 1% SP, 1% PS and 1% L-glutamine, now additionally containing 0.1% DMSO and the respective test compound or 0.1% DMSO alone as untreated control. Each concentration was tested in triplicate wells and each experiment was repeated independently at least three times. Following overnight incubation with the test compounds, cells were assayed for luciferase activity using Dual-Glo™ Luciferase Assay System (Promega) according to the manufacturer's protocol. Luminescence was measured with an Infinite m200 luminometer (Tecan Deutschland GmbH). Each concentration of the compounds was tested in triplicate wells. Normalization for transfection efficacy and cell growth was done by division of the firefly luciferase data by renilla luciferase data resulting in relative light units. Activation factors were obtained by dividing by DMSO control. […] All compounds were evaluated by comparison of the achieved maximum effect to that of the reference compound (pioglitazone for PPARγ, GW7647 for PPARa, and L165041 for PPARS each with 1 μM). Data are expressed as mean±SE; n≥3.
(§3) The Gal4-fusion receptor plasmids pFA-CMV-PPARa-LBD, pFA-CMV-PPARS-LBD and pFA-CMV-PPARγ-LBD containing the hinge region and ligand binding domain (LBD) for each of the PPAR subtypes, respectively, were constructed by integrating cDNA fragments obtained from PCR amplification of human monocytes into the SmaI/XbaI cleavage site of the pFA-CMV vector (Stratagene, La Jolla, Calif., USA) and have already been published. […] Frame and sequence of the fusion receptors were verified by sequencing. pFR-Luc (Stratagene) was used as reporter plasmid and pRL-SV40 (Promega) for normalization of transfection efficacy and cell growth.

PPARδ = biological target: T3, PPARδ (Homo sapiens, UniProt Q03181); experiment: PPAR transactivation assay in COS-7 cells (Gal4-hPPAR-LBD, luciferase); format: cell-based
T3 construct: expressed in transfected cells; host or cells: COS-7
T3 sequence (Q03181 211-439): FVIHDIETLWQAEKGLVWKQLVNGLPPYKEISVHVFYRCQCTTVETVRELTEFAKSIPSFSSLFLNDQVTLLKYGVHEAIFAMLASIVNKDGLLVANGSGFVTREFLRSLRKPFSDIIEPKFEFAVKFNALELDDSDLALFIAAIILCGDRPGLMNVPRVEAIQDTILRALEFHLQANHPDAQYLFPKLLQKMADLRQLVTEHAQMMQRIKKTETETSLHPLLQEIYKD
Description: as §1, §2, §3

[2] = at 10 μM, read-out: sEH inhibition @10 μM (converted)

Row | SMILES | solubility [1] [µM] | IC50 (recombinant human sEH; read-out: IC50 sEH (converted)) [µM] | EC50 PPARα (PPARα; i.a. = inactive) | EC50 PPARδ (PPARδ; i.a. = inactive) | also measured
1 | CCOC(=O)/C(=C/c1ccc(C(=O)NCc2ccc(OC)cc2)cc1)CC [Compound 10a, Ethyl (E)-4-[N-((4-methoxy)benzyl)benzamide]-alpha-ethylcinnamate] | 10 (≈ 3.67 µg/mL) | – | – | – | IC50 (recombinant human sEH): 0.55 µM
2 | CCC/C(=C\c1ccc(C(=O)NCc2ccccc2C(F)(F)F)cc1)C(=O)O [Compound 18d, (E)-4-[N-((2-Trifluoromethyl)benzyl)benzamide]-alpha-propylcinnamic acid] | 5 (≈ 1.96 µg/mL) | 0.7 ± 0.06 | – | – | –
3 | CCC/C(=C\c1ccc(C(=O)NCc2ccccc2C(F)(F)F)cc1)C(=O)OCC [Compound 18a, Ethyl (E)-4-[N-((2-trifluoromethyl)benzyl)benzamide]-alpha-propylcinnamate] | 10 (≈ 4.19 µg/mL) | 0.16 ± 0.06 | – | – | –
4 | CCOC(=O)C(CC)Cc1cccc(C(=O)NCc2ccccc2C(F)(F)F)c1 (stereo not drawn) [Compound 15b, Ethyl 2-ethyl 3-[3-(N-((2-trifluoromethyl)benzyl)benzamide)]propanoate] | – | 0.027 ± 0.002 | i.a. | i.a. | –
5 | CC/C(=C\c1ccc(C(=O)NCc2ccc(Cl)cc2)cc1)C(=O)O [Compound 11d, (E)-4-[N-((4-Chloro)benzyl)benzamide]-alpha-ethylcinnamic acid] | 100 (≈ 34.4 µg/mL) | 5 | – | – | –
6 | CCOC(=O)/C(=C/c1ccc(C(=O)NCc2ccccc2C(F)(F)F)cc1)CC [Compound 1a] | – | 0.063 ± 0.003 | i.a. | i.a. | –
7 | CCC(Cc1ccc(C(=O)NCc2ccc(F)cc2)cc1)C(=O)O (stereo not drawn) [Compound 7c, 2-Ethyl 3-[4-(N-((4-fluoro)benzyl)benzamide)]propionic acid] | – | – | n.t. i.a. i.a. n.t. | n.t. i.a. i.a. n.t. | inhibition at 10 µM (recombinant human sEH; [2]): 28%
8 | C/C(=C\c1ccc(C(=O)NCc2ccccc2C(F)(F)F)cc1)C(=O)O [Compound 17d, (E)-4-[N-((2-Trifluoromethyl)benzyl)benzamide]-alpha-methylcinnamic acid] | 500 (≈ 182 µg/mL) | 4.9 ± 0.06 | – | – | –
9 | O=C(NCc1ccccc1C(F)(F)F)c1ccc(C2CC2C(=O)O)cc1 (stereo not drawn) [Compound 22, 2-[4-(N-((2-trifluoromethyl)benzyl)benzamide)]cyclopropan carboxylic acid] | – | 5.5 ± 0.2 | i.a. | i.a. | –
10 | CCC(Cc1ccc(C(=O)NCc2ccccc2Cl)cc1)C(=O)O (stereo not drawn) [Compound 4c, 2-Ethyl 3-[4-(N-((2-chloro)benzyl)benzamide)]propionic acid] | – | – | n.t. i.a. i.a. n.t. | n.t. i.a. i.a. n.t. | inhibition at 10 µM (recombinant human sEH; [2]): 20%
11 | CC/C(=C\c1ccc(C(=O)NCc2ccccc2C(F)(F)F)cc1)C(=O)O [Compound 1d, (E)-4-[N-((2-Trifluoromethyl)benzyl)benzamide]-alpha-ethylcinnamic acid] | – | 0.12 ± 0.01 | i.a. | i.a. | –
12 | CCC(Cc1cccc(C(=O)NCc2ccccc2C(F)(F)F)c1)C(=O)O (stereo not drawn) [Compound 15c, 2-Ethyl 3-[3-(N-((2-trifluoromethyl)benzyl)benzamide)]propionic acid] | – | 0.9 ± 0.08 | – | i.a. | PPARα activation @10 μM (PPARα): @10 μM (34%)
13 | CCC(Cc1ccc(C(=O)NCc2ccccc2C)cc1)C(=O)O (stereo not drawn) [Compound 3c, 2-Ethyl 3-[4-(N-((2-methyl)benzyl)benzamide)]propionic acid] | – | – | i.a. | n.t. i.a. i.a. n.t. | inhibition at 10 µM (recombinant human sEH; [2]): 25%
14 | CCC(Cc1ccc(C(=O)NCc2ccccc2)cc1)C(=O)O (stereo not drawn) [Compound 2c, 2-Ethyl 3-[4-(N-benzylbenzamide)]propionic acid] | – | – | – | – | EC50 PPARα (PPARα): n.t. i.a. i.a. n.t.; EC50 PPARδ (PPARδ): n.t. i.a. i.a. n.t.; inhibition at 10 µM (recombinant human sEH; read-out: sEH inhibition @10 μM): 4%
15 | CCOC(=O)C(CC)Cc1ccc(C(=O)NCc2ccc(OC)cc2C(F)(F)F)cc1 (stereo not drawn) [Compound 14b, Ethyl 2-ethyl 3-[4-(N-(4-methoxy(2-trifluoromethyl)benzyl)benzamide)]propanoate] | – | – | – | n.t. i.a. i.a. n.t. | PPARα activation @10 μM (PPARα): 22%
